In patent publication US20210205253A1, “Use Of Stearic Acid For Preventing Or Treating Pulmonary Fibrosis” (THE ASAN FOUNDATION, priority 2018, published 2021):

Assays:
[1] = test system: human pulmonary fibroblasts (MRC-5); test: Cell viability (MTT) of human pulmonary fibroblasts; type: cell-based; conditions: stearic acid 40 uM/mL + TGF-β 5 ng/mL, 24 h, versus TGF-β alone
Procedure: After epithelial cells and fibroblasts were aliquoted into 6-well plates at 2×10^4 cells/well and a stabilization time was imparted for 24 hours, and 15 hours after deficiency, cells were treated with stearic acid (40 uM/mL), TGF-β (5 ng/mL), and stearic acid (40 uM/mL)+TGF-β (5 ng/mL) in this order. After the cells were cultured in an incubator for 24 hours after the treatment, the next-step experiment was performed.
After a 24-hour cell stimulation by the method in Example 1-3 was completed, the medium of epithelial cells and fibroblasts was replaced with a general culture medium, 10 μl of an MTT solution (20 mg/ml) was further added, and then the outside of the plate was wrapped with aluminum foil and cells were cultured in an incubator for 2 hours. […] After 2 hours, cell activation was measured at an absorbance value of 595 nm using an ELISA reader.
For this purpose, after each culture (BEGM(Lonza) in the case of MRC-5, and BMEM (ATCC) in the case of BEAS-2B) of human pulmonary fibroblasts (MRC-5; ATCC® CCL171™) and human pulmonary epithelial cells (BEAS-2B; ATCC® CRL9609™) was treated with stearic acid (40 uM/mL), TGF-β (5 ng/mL; Sigma), or stearic acid (40 uM/mL)+TGF-β (5 ng/mL) by the method described in Example 1-3 for 24 hours, cell viability was measured by the method in Example 1-4. […]

[2] = test system: human primary fibroblasts; test: Combined treatment of stearic acid and pirfenidone in human primary fibroblasts (western blotting); type: cell-based; conditions: TGF-β 5 ng/ml; 40 μM stearic acid single treatment (Lane 4)
Procedure: The primary fibroblasts derived from the patients with idiopathic pulmonary fibrosis used in the following experiment were cultured for 7 to 10 days while cutting the lung tissue of the patient into 1×1 mm^2 slices, and then periodically exchanging a cell culture solution (Eagle's minimal essential medium; EMEM) supplemented with 100 unit/ml penicillin, 100 μg/ml streptomycin, and 10% fetal bovine serum (FBS) under conditions of 5% CO2 and 37° C., and cells of passage 2 to 5 were used for the experiment.
To verify the anti-fibrotic effect by the combined treatment of stearic acid and pirfenidone, which is a therapeutic agent for idiopathic pulmonary fibrosis, the human primary fibroblasts isolated by the above-described method were respectively or simultaneously treated with 5 ng/ml TGF-β, 40 μM stearic acid, and 400 or 800 μM pirfenidone for 24 hours, and then the expression levels of collagen type 1 (COL-1) and α-SMA, which are markers of fibrosis, were measured by western blotting, and the inhibitory rate was quantitatively analyzed by correcting the amount of each protein with the amount of actin, which is an intracellular control protein.

[3] = test system: p-Smad2/3 and Smad7 in MRC-5 cells; test: p-Smad2/3 and Smad7 expression in fibroblasts; type: cell-based, human; conditions: 40 μM stearic acid pre-treatment 16 h, TGF-β1 1 h
Procedure: The present inventors pre-treated a human pulmonary fibroblast cell line MRC-5 with 40 μM stearic acid for 16 hours, treated the MRC-5 cells with TGF-β1 for 1 hour, and then examined the expression levels of p-Smad2/3 and Smad7 in order to elucidate the anti-fibrotic mechanism of stearic acid in human pulmonary fibroblasts (FIGS. 12A and 12B). Further, to investigate the effect of stearic acid on the production of reactive oxygen species (ROS), MRC-5 cells were pre-treated with 40 μM stearic acid for 16 hours, and cells treated with TGF-β1 for 1 hour were stained with DCF-DA and analyzed by FACS (FIG. 12C). Furthermore, MRC-5 cells were pre-treated with 5 mM N-acetylcysteine (NAC), which is an antioxidant, for 1 hour and treated with TGF-β1 for 1 hour, and then the expression of p-Smad2/3 was examined (FIG. 12D).

[4] = test system: primary fibroblasts isolated from lung tissues of patients with idiopathic pulmonary fibrosis; test: Collagen 1 and α-SMA expression in primary fibroblasts from IPF patients; type: cell-based, human; conditions: 80 μM stearic acid
Procedure: In addition to the results in the Examples, the present inventors sought to verify the anti-fibrotic effect of stearic acid on fibroblasts derived from lung tissues in patients with idiopathic pulmonary fibrosis (IPF). For this purpose, after primary fibroblasts were isolated from lung tissues of the patients, and then the cells were treated with stearic acid at various concentrations for 24 hours, the expression levels of collagen 1 and α-SMA were measured (FIGS. 10A and 10B), fibroblasts obtained from 4 patients were treated with 80 μM stearic acid for 24 hours, and then the expression levels of collagen 1 and α-SMA were measured (FIG. 10C). In addition, after the expression of collagen type 1 and α-SMA was increased by inducing the fibrosis caused by TGF-β1 in patient-derived fibroblasts, the anti-fibrotic effect of stearic acid was verified (FIGS. 10D and 10E).

[5] = primary fibroblasts from 4 patients with IPF, 24 h (FIG. 10C)

SMILES: CCCCCCCCCCCCCCCCCC(=O)O [stearic acid]
- cell viability of pulmonary fibroblasts [1]: cell viability decreased
- change in COL-1 [2]: insignificant
- α-SMA [2]: reduced
- expression of Smad 7 reduced by TGF-β1 [3]: restored
- expression of p-Smad2/3 induced by TGF-β1 [3]: inhibited
- basal level expression of collagen 1 ([4]; 24 h (FIGS. 10A, 10B)): significantly reduced
- basal level expression of α-SMA ([4]; 24 h (FIGS. 10A, 10B)): significantly reduced
- expression of collagen 1 ([4]; fibrosis induced by TGF-β1): significantly reduced
- expression of α-SMA ([4]; fibrosis induced by TGF-β1): significantly reduced
- basal level expression of collagen 1 [4, 5]: significantly reduced
- basal level expression of α-SMA [4, 5]: significantly reduced
